Experimental findings from ChEMBL document CHEMBL1833824, “Effects of cyclization on stability, structure, and activity of α-conotoxin RgIA at the α9α10 nicotinic acetylcholine receptor and GABA(B) receptor” (J Med Chem, 2011) are described below.

A short description of this test: Activation of human alpha-9/rat alpha-10 nACHR expressed in Xenopus oocytes assessed as increase of acetylcholine-induced current. It counts as cell-based. Conditions: Oocyte.

Take `CC(=O)OCC[N+](C)(C)C` [ACETYLCHOLINE]: the EC50 came out at 50 µM.
